# Test results reported in patent US8883763B2 (Universite Joseph Fourier, priority 2010, dated 2014).
# Molecular target: T1, PP1α (PP1CA) (Oryctolagus cuniculus, UniProt P62139)
# T1 construct: purchased New England Biolabs P0754
# Experiment: Protein phosphatase test (PP1 activity, DiFMUP fluorescent substrate)
# Format: biochemical
# Conditions: PP1CA at 80 mU, fluorescent substrate (50 μM), molecules from 50 μM to 50 nM; read-out: PP1 Inhibition IC50
# Method: FIG. 13 presents the graph showing the inhibition of the PP1Cα activity by compound 6 in vitro. PP1Cα (New England Biolabs, 30 mU/well) was incubated in the presence of compound 6 at different concentrations and a fluorescent substrate, diFMUP.
# Determination of the 1050 was carried out with PP1CA at 80 mU in the presence of a fluorescent substrate
# (50 μM) and different concentrations of molecules from 50 μM to 50 nM.
# For the activity tests, PP1α (New England Biolabs # P0754) was used at a final concentration of 30 mU or 80 mU for the screening of all the analogues. 6,8-difluoro-4-methylumbelliferyl phosphate (DiFMUP, Invitrogen # D6567) was used as fluorescent substrate at a concentration of […]. All the tests were carried out in a final volume of 100 μl, at 37° C. in 96-microwell plates (Greiner #655096).
# Compound 6, combretastatin A4 (CA-4) as well as all the analogues were diluted in 50 μl of PP1 buffer (100 mM Tris-HCl, pH 7.5, 4 mM DTT, 0.2 mM EDTA, 0.5 mM MnCl2) from 50 μM to 50 nM. Corresponding quantities of DMSO were added to control wells. PP1α (30 or 80 mU in 30 μl of PP1 buffer) was added to each well. After incubating for 15 minutes at AT, the substrate was added (in 20 μl of PP1 buffer). After incubating for 20 minutes at 37° C., the fluorescence was measured in a plate fluorometer at 355-460 nm in order to assay the phosphatase activity. The test was carried out three times in duplicate for each condition.
# T1 sequence (P62139 whole entry): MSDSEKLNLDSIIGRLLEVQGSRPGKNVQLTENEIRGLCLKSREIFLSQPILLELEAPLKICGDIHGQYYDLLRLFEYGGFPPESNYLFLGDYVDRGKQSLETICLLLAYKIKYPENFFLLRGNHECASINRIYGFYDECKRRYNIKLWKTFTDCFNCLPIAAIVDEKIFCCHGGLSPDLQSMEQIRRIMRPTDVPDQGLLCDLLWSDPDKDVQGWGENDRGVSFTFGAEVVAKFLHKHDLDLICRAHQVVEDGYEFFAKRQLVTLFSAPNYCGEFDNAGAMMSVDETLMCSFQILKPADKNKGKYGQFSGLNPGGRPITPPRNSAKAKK
row,SMILES,IC50 [µM]
1,COc1ccc2c([N+](=O)[O-])c(-c3ccc(C#CC(C)(C)O)cc3)[nH]c(=O)c2c1 [Compound 59],25 to 50
2,"O=c1[nH]c(-c2ccc(O)cc2)cc2ccc(O)cc12 [Compound 57, 7-Hydroxy-3-(4-hydroxyphenyl)isoquinoline-1(2H)-one]",> 50
3,COc1ccc(-c2[nH]c(=O)c3ccccc3c2N)cc1 [Compound 8],> 50
4,"COc1ccc2c(NC=O)c(-c3ccccc3)[nH]c(=O)c2c1 [Compound 9, N-(7-Methoxy-1-oxo-3-phenyl-1,2-dihydroisoquinoline-4-yl)methanamide]",> 50
5,COc1ccc(-c2[nH]c(=O)c3cc(OC)ccc3c2-c2ccc(OC)cc2)cc1 [Compound 5],> 50
6,"COc1ccc(-c2[nH]c(=O)c3cc(OC)ccc3c2NCCOCCO)cc1 [Compound 50, 4-(2-(2-hydroxyethoxy)ethylamino)-7-methoxy-3-(4-methoxyphenyl)isoquinolin-1(2H)-one]",> 50
7,"COc1ccc(-c2cc3ccc(OC)cc3c(=O)n2N)cc1 [Compound 61, 2-Amino-7-methoxy-3-(4-methoxyphenyl)isoquinoline-1(2H)-one]",> 50

# Tested on: bovine brain tubulin
# Experiment: In vitro tubulin polymerization test (turbidimetry at 350 nm)
# Format: biochemical
# Conditions: molecules at 50 μM, calculated at t=3000 s, DMSO control = 100%
# Method: Tubulin was purified from bovine brain using the polymerization-depolymerization process described by (Castoldi M and Popov A V. Protein Expr Purif. 2003, 32(1): pp 83-8).
# The in vitro tubulin polymerization tests (at 50 μM) were carried out in the presence of GTP 1 mM in BRB80 buffer (80 mM K-PIPES pH 6.8, 1 mM MgCl2, 1 mM EGTA) at 37° C. The tests were carried out in 96-microwell plates (half-wells) (Costar plates, Corning #3695), in triplicate with a final volume of 70 μl. Tubulin assembly was carried out in the presence of compound 6 or its analogues (all used at a concentration of 50 μM) and was monitored by turbidimetry measurement at 350 nm using a spectrophotometer (Spectramax More, Molecular Devices).
# Measurement of the effect of a molecule on polymerization was calculated at t=3000 s taking the value of the control at the same time as being equal to 100%.
row,SMILES,Tubulin polymerization inhibition
1,COc1ccc2c([N+](=O)[O-])c(-c3ccc(C#CC(C)(C)O)cc3)[nH]c(=O)c2c1 [Compound 59],— ((−) signifies that the molecule induces little or no tubulin assembly inhibition in vitro: 0+ or − −5% of the DMSO control.)
2,"O=c1[nH]c(-c2ccc(O)cc2)cc2ccc(O)cc12 [Compound 57, 7-Hydroxy-3-(4-hydroxyphenyl)isoquinoline-1(2H)-one]",+ ((+) signifies that the molecule induces tubulin assembly inhibition in vitro comprised between 6 and 25% of the DMSO control.)
3,COc1ccc(-c2[nH]c(=O)c3ccccc3c2N)cc1 [Compound 8],— ((−) signifies that the molecule induces little or no tubulin assembly inhibition in vitro: 0+ or − −5% of the DMSO control.)
4,"COc1ccc2c(NC=O)c(-c3ccccc3)[nH]c(=O)c2c1 [Compound 9, N-(7-Methoxy-1-oxo-3-phenyl-1,2-dihydroisoquinoline-4-yl)methanamide]",— ((−) signifies that the molecule induces little or no tubulin assembly inhibition in vitro: 0+ or − −5% of the DMSO control.)
5,COc1ccc(-c2[nH]c(=O)c3cc(OC)ccc3c2-c2ccc(OC)cc2)cc1 [Compound 5],+++ ((+++) signifies that the molecule induces tubulin assembly inhibition in vitro of more than 50% with respect to the DMSO control.)
6,"COc1ccc(-c2[nH]c(=O)c3cc(OC)ccc3c2NCCOCCO)cc1 [Compound 50, 4-(2-(2-hydroxyethoxy)ethylamino)-7-methoxy-3-(4-methoxyphenyl)isoquinolin-1(2H)-one]",+++ ((+++) signifies that the molecule induces tubulin assembly inhibition in vitro of more than 50% with respect to the DMSO control.)
7,"COc1ccc(-c2cc3ccc(OC)cc3c(=O)n2N)cc1 [Compound 61, 2-Amino-7-methoxy-3-(4-methoxyphenyl)isoquinoline-1(2H)-one]",— ((−) signifies that the molecule induces little or no tubulin assembly inhibition in vitro: 0+ or − −5% of the DMSO control.)

# Tested on: HeLa cells
# Experiment: Indirect immunofluorescence: effect on HeLa cells (mitotic arrest, microtubule depolymerization)
# Format: cell-based, human
# Set-up: key to Effect on Hela at 25 μM / Effect on Hela at 100 μM / Effect on Hela at 50 and 100 μM / Effect on Hela at 50 μM: —: −: no activity on the cells at 25 μM (if there is an effect at high concentrations, this is specified in the table).; *: weak activity (MA and/or slight depolymerization of the MTs and/or slight inhibition of proliferation),; **: average activity (MA and/or moderate depolymerization of the MTs and/or moderate inhibition of proliferation),; ***: strong activity (MA and/or pronounced depolymerization of the MTs and/or pronounced inhibition of proliferation),; ****: very strong activity (MA and/or very pronounced depolymerization of the MTs and/or strong inhibition of proliferation)
# Conditions: 25 μM, 24 hours; mitotic index and/or depolymerization of the MTs
# Method: The cells were cultured on slides in 24-well plates and incubated for 24 hours with molecule 6 at different concentrations from 1 to 10 μM.
# Corresponding quantities of DMSO were added to the culture medium in the control wells.
# The cells were fixed in a solution of PBS with 4% paraformaldehyde (PFA) and 0.1% glutaraldehyde (GA), for 15 minutes and centrifuged at 300 g for the last 10 minutes of the fixing. The slides were rinsed in PBS and the free aldehyde groups were reduced by two successive 5-minute incubations in PBS containing 1 mg/ml of NaBH4.
# After one washing with PBS then another with PBST (PBS with 0.5% triton-X-100), the cells are incubated for 30 minutes at ambient temperature with anti α-tubulin monoclonal antibody solution (DM1A clone, Sigma # T6199) diluted to 1:200 in PBST. After 3 10-minute washings with PBST, the cells are incubated for 30 minutes at ambient temperature in a solution of goat anti-mouse polyclonal antibodies coupled with Alexa 488 (1:1000, Molecular Probes # A-11029) and phalloidin coupled with Texas red to label the actin (1:2000, Molecular Probes # T7471), in PBST also containing Hoechst 33258 (1 μg/ml) for labelling the DNA. After 3 10-minute washings in PBST, the slides are mounted on plates in Fluorsave™ mounting medium (Calbiochem #345789) and are observed and analyzed using an Axiovert 200M inverted fluorescence microscope (Zeiss®). The images are produced with a Plan-Apochromat 63× oil objective (Zeiss®) by means of a Coolsnap HQ camera (Roper Scientifics®) and with Metamorph acquisition software (Universal Imaging™ Corporation).
# In order to evaluate the effect of the analogues of compound 6 on PHFs and HeLa cells, the immunofluorescence technique described above was used and adapted to a 96-well dish format. The cells were seeded in glass-bottomed 96-well dishes and incubated for 24 hours in the presence of different concentrations of molecules from 100 μM to 50 nM. And in the same way as described above, the cells were fixed and immunolabelled. Analysis of the phenotypes as well as counting the mitotic cells were carried out with the same microscope but using a ×40 objective (Olympus). The molecules were compared with each other with respect to the mitotic arrest induced on PHFs and HeLa cells at 25 and 0.3 μM.
# The mitotic index and/or the depolymerization of the MTs were evaluated at 25 μM.
row,SMILES,Effect on Hela at 25 μM
1,COc1ccc2c([N+](=O)[O-])c(-c3ccc(C#CC(C)(C)O)cc3)[nH]c(=O)c2c1 [Compound 59],—
2,"O=c1[nH]c(-c2ccc(O)cc2)cc2ccc(O)cc12 [Compound 57, 7-Hydroxy-3-(4-hydroxyphenyl)isoquinoline-1(2H)-one]",***
3,COc1ccc(-c2[nH]c(=O)c3ccccc3c2N)cc1 [Compound 8],—
4,"COc1ccc2c(NC=O)c(-c3ccccc3)[nH]c(=O)c2c1 [Compound 9, N-(7-Methoxy-1-oxo-3-phenyl-1,2-dihydroisoquinoline-4-yl)methanamide]",—
5,COc1ccc(-c2[nH]c(=O)c3cc(OC)ccc3c2-c2ccc(OC)cc2)cc1 [Compound 5],***
6,"COc1ccc(-c2[nH]c(=O)c3cc(OC)ccc3c2NCCOCCO)cc1 [Compound 50, 4-(2-(2-hydroxyethoxy)ethylamino)-7-methoxy-3-(4-methoxyphenyl)isoquinolin-1(2H)-one]",—
7,"COc1ccc(-c2cc3ccc(OC)cc3c(=O)n2N)cc1 [Compound 61, 2-Amino-7-methoxy-3-(4-methoxyphenyl)isoquinoline-1(2H)-one]",—

# Same assay, conditions: 50 and 100 μM, 24 hours
row,SMILES,Effect on Hela at 50 and 100 μM
1,"COc1ccc2c(NC=O)c(-c3ccccc3)[nH]c(=O)c2c1 [Compound 9, N-(7-Methoxy-1-oxo-3-phenyl-1,2-dihydroisoquinoline-4-yl)methanamide]",**

# Tested on: HMEC cells
# Experiment: Proliferation of HMEC cells (GI50)
# Format: cell-based
# Conditions: Homo sapiens, 120 h, 50 μM to 1 nM for 5 days
# Method: The HMECs were seeded at 10% confluence and incubated with the molecules at different concentrations (from 50 μM to 1 nM) for 5 days. The GI50 (50% Growth Inhibition) defines the concentration inducing a 50% reduction in proliferation with respect to the control.
row,SMILES,GI50 [µM]
1,COc1ccc2c([N+](=O)[O-])c(-c3ccc(C#CC(C)(C)O)cc3)[nH]c(=O)c2c1 [Compound 59],> 50
2,"O=c1[nH]c(-c2ccc(O)cc2)cc2ccc(O)cc12 [Compound 57, 7-Hydroxy-3-(4-hydroxyphenyl)isoquinoline-1(2H)-one]",1 to 25
3,COc1ccc(-c2[nH]c(=O)c3ccccc3c2N)cc1 [Compound 8],> 50
4,"COc1ccc2c(NC=O)c(-c3ccccc3)[nH]c(=O)c2c1 [Compound 9, N-(7-Methoxy-1-oxo-3-phenyl-1,2-dihydroisoquinoline-4-yl)methanamide]",25 to 50
5,COc1ccc(-c2[nH]c(=O)c3cc(OC)ccc3c2-c2ccc(OC)cc2)cc1 [Compound 5],0.1 to 1
6,"COc1ccc(-c2[nH]c(=O)c3cc(OC)ccc3c2NCCOCCO)cc1 [Compound 50, 4-(2-(2-hydroxyethoxy)ethylamino)-7-methoxy-3-(4-methoxyphenyl)isoquinolin-1(2H)-one]",25 to 50
7,"COc1ccc(-c2cc3ccc(OC)cc3c(=O)n2N)cc1 [Compound 61, 2-Amino-7-methoxy-3-(4-methoxyphenyl)isoquinoline-1(2H)-one]",> 50
